In patent US20110008888A1, “Novel Genetic Approaches to Reduce or Inhibit Tumorgenicity of Human Embryonic Stem Cells and Derivatives Following Transplantation” (The John Hopkins University, priority 2005, published 2011):
Entries after “also recorded” stand apart in the source; their conditions may differ. Like-named read-outs stand apart in the source and are kept apart here.

Experiments:
mESCs = test: Cell proliferation assay, mESCs (viable cell count after 48 hours); type: cell-based, mouse; conditions: for EC50: mESCs, cell number after 48 hours, read-out: half-effective concentration (EC50) for inhibition of mESC proliferation; for effect on proliferation of mESCs (words): dose-dependent, p<0.05
hESCs = test: Cell proliferation assay, hESCs (colony parameters after 6 days); type: cell-based, human; conditions: for effect on proliferation of hESCs: dose-dependent, p<0.05
[1] = tested on: delayed rectifier K+ currents (IKDR) in mESCs; test: Whole-cell patch clamp, block of IKDR in undifferentiated mESCs; type: cell-based, mouse; conditions: for IC50: whole-cell patch clamp, room temperature
ESCs = test: Cytotoxic effects of K+ channel blockers on ESCs; conditions: high concentrations
IKDR in hESCs = test: Whole-cell patch clamp, block of IKDR in undifferentiated hESCs; type: cell-based, human; conditions: pluripotent hESCs (H1)

| Compound | EC50 (mESCs; Mus musculus) | effect on proliferation of mESCs (words) (mESCs) | effect on proliferation of hESCs (hESCs) | IC50 ([1]; undifferentiated mESCs) | IKDR component sensitive to blocker ([1]; mESCs, 100 nM IBTX) | current inhibition of IKDR in mESCs ([1]; undifferentiated mESCs, IBTX 100 nM, n=3) | cytotoxic effects (ESCs) | IC50 (IKDR in hESCs) | effect on proliferation of mESCs (words) (mESCs; listed as TEA+) | EC50 (mESCs) | EC50 (hESCs; hESCs, colony parameters after 6 days, read-out: EC50 for inhibition of hESC proliferation) |
| --- | --- | --- | --- | --- | --- | --- | --- | --- | --- | --- | --- |
| Nc1ccncc1 [4-AP, 4-aminopyridine] | 4000 ± 1800 µM | significantly reduced | significantly reduced | 550 ± 170 µM | – | – | – | – | – | – | – |
| iberiotoxin [IBTX] | – | significantly reduced; also recorded: dose-dependently reduced | significantly reduced | – | sensitive | 33.2±12.7% | cytotoxic effects | – | – | – | – |
| CC[N+](CC)(CC)CC [TEA] | – | significantly reduced | significantly reduced | 1400 ± 380 µM | – | – | – | 2100 ± 200 µM | significantly inhibited | 11900 ± 1200 µM | 3800 ± 100 µM |
